Reference: the supplement of paper PMC10307832

Columns and labels:
Assay in all cases: relative viability (nuclei count vs DMSO), 5 days (fraction); higher = more cells survive
[1] = compound: N#CC1(c2ccc(NC(=O)c3cccnc3NCc3ccncc3)cc2)CCCC1 [Apatinib] + CS(=O)(=O)N1CCN(Cc2cc3nc(-c4cccc5[nH]ncc45)nc(N4CCOCC4)c3s2)CC1 [Pictilisib] (partner 1 µM)
In short: (§1)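 Relative viability divides the nuclei count in treated wells by that in vehicle wells. Lung cancer cell lines were seeded in 1536-well plates, dosed by pin tool the next day, and fixed and stained after 5 days in one step with final 0.05% Triton X-100, 1% formaldehyde and 1 ug/ml Hoechst. Dosing was a single drug or a fixed anchor-drug dose plus five library-drug doses (not always all listed) in √10 steps, and values are medians of duplicate plates imaged at 4×.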

[2] = compound: CN(C)C(=N)NC(=N)N [Metformin] + Cc1nc(Nc2ncc(C(=O)Nc3c(C)cccc3Cl)s2)cc(N2CCN(CCO)CC2)n1 [Dasatinib] (partner 0.075 µM)
In short: as §1

[3] = compound: N#CC1(c2ccc(NC(=O)c3cccnc3NCc3ccncc3)cc2)CCCC1 [Apatinib] + CC(=O)Nc1cccc(-n2c(=O)n(C3CC3)c(=O)c3c(Nc4ccc(I)cc4F)n(C)c(=O)c(C)c32)c1 [Trametinib] (partner 0.02 µM)
In short: as §1

[4] = compound: N#CC1(c2ccc(NC(=O)c3cccnc3NCc3ccncc3)cc2)CCCC1 [Apatinib] + COc1cc2c(Oc3ccc(NC(=O)C4(C(=O)Nc5ccc(F)cc5)CC4)cc3F)ccnc2cc1OCCCN1CCOCC1 [Foretinib] (partner 0.25 µM)
In short: as §1

Cell Line | relative viability ([1]; first compound 0.08 µM) | relative viability ([1]; first compound 0.253 µM) | relative viability ([1]; first compound 0.8 µM) | relative viability ([1]; first compound 2.53 µM) | relative viability ([1]; first compound 8 µM) | relative viability ([2]; first compound 10 µM) | relative viability ([2]; first compound 31.62 µM) | relative viability ([2]; first compound 100 µM) | relative viability ([2]; first compound 316.23 µM) | relative viability ([2]; first compound 1000 µM) | relative viability ([3]; first compound 0.08 µM) | relative viability ([3]; first compound 0.253 µM) | relative viability ([3]; first compound 0.8 µM) | relative viability ([3]; first compound 2.53 µM) | relative viability ([3]; first compound 8 µM) | relative viability ([4]; first compound 0.08 µM) | relative viability ([4]; first compound 0.253 µM) | relative viability ([4]; first compound 0.8 µM) | relative viability ([4]; first compound 2.53 µM) | relative viability ([4]; first compound 8 µM)
NCI-H1437 | 0.468 | 0.441 | 0.377 | 0.392 | 0.284 | 0.602 | 0.48 | 0.359 | 0.41 | 0.415 | 0.526 | 0.532 | 0.433 | 0.314 | 0.348 | 1.28 | 1.26 | 1.24 | 1.03 | 1.02
H3255 | 0.448 | 0.454 | 0.388 | 0.436 | 0.447 | 0.391 | 0.344 | 0.232 | 0.402 | 0.315 | 0.655 | 0.588 | 0.669 | 0.597 | 0.535 | 0.973 | 0.795 | 0.757 | 0.753 | 0.675
NCI-H322M | 0.513 | 0.488 | 0.523 | 0.627 | 0.528 | 0.326 | 0.318 | 0.31 | 0.305 | 0.245 | 0.506 | 0.651 | 0.494 | 0.545 | 0.425 | 1.02 | 0.857 | 0.944 | 0.984 | 0.88
LCLC-103H | 0.651 | 0.639 | 0.554 | 0.545 | 0.546 | 0.598 | 0.579 | 0.579 | 0.514 | 0.588 | 0.702 | 0.699 | 0.722 | 0.713 | 0.688 | 0.785 | 0.957 | 0.681 | 0.805 | 0.573
CAL-12T | 0.304 | 0.352 | 0.393 | 0.484 | 0.353 | 0.471 | 0.58 | 0.479 | 0.357 | 0.515 | 0.385 | 0.337 | 0.289 | 0.313 | 0.249 | 1.3 | 1.14 | 1.11 | 0.992 | 0.974
PC-14 | 0.708 | 0.837 | 0.39 | 0.547 | 0.55 | 0.337 | 0.285 | 0.253 | 0.235 | 0.233 | 0.754 | 0.897 | 0.563 | 0.636 | 0.388 | 1.02 | 1.01 | 0.83 | 0.973 | 1.06
NCI-H2009 | 1.12 | 0.727 | 0.737 | 0.644 | 0.501 | 0.503 | 0.522 | 0.483 | 0.401 | 0.467 | 0.341 | 0.285 | 0.31 | 0.25 | 0.229 | 1.39 | 1.18 | 1.17 | 1.07 | 0.853
NCI-H2347 | 0.51 | 0.673 | 0.748 | 0.552 | 0.596 | 0.336 | 0.369 | – | 0.307 | 0.354 | 0.294 | 0.228 | 0.249 | 0.291 | 0.268 | 0.657 | 0.912 | 0.856 | – | 0.766
NCI-H23 | 0.547 | 0.522 | 0.458 | 0.426 | 0.492 | 0.759 | 0.876 | 0.833 | 0.499 | 0.802 | 0.477 | 0.393 | 0.427 | 0.426 | 0.31 | 1 | 1.21 | 1.05 | 1 | 1.1
